Assay results from patent publication US5283243A, “Piperidinoalkylbenzoxazine and piperidinoalkylbenzothiazine compounds, and medicaments containing them” (Kali-Chemie Pharma GmbH, priority 1990, dated 1994).
Like-named read-outs stand apart in the source and are kept apart here.

Key:
[1] = tested on: 5-lipoxygenase (LTC4 release); test: 5-Lipoxygenase inhibition: LTC4 release from zymosan-stimulated mouse peritoneal macrophage cells; type: cell-based; settings: Peritoneal macrophage cell; zymosan-stimulated mouse peritoneal macrophage cells, 10^-5 mole/l; read-out: In vitro % inhibition upon release of LTC4
Excerpt: (§1) 5. In vitro Determination of Cyclooxygenase Inhibition and 5-Lipoxygenase Inhibition
(§2) After a cell is activated, arachidonic acid contained in cell membranes is metabolized in two ways. Leucotrienes, inter alia leucotriene C4, are formed due to the action of the enzyme 5-lipoxyqenase (=5-LO), and prostanoids are formed due to the action of the enzyme cyclooxygenase (=CO). In in vitro systems these metabolites are secreted from the cell.
(§3) To evaluate the cyclooxygenase-inhibiting and 5-lipoxygenase-inhibiting properties of the test substances, their inhibitory activity on the biosynthesis of the arachidonic acid derivatives leucotriene C4 (=LTC4) and 6-keto-prostaglandin F1α (=6-keto-PGF1 α) was determined in vitro on mouse peritoneal macrophage cells. For this purpose the LTC4 and 6-keto-PGF1 α contents of a mouse peritoneal macrophage cell culture medium were determined by zymosan stimulation as described by Scott et al. (J. Exp. Med. 152 (1980), 324-335) and by Fradin et al., (Prostaglandins, 33 (1987), 579-589).
(§4) A cell suspension containing peritoneal cells from male mice 8-10 weeks old was obtained in a known manner. A solution marketed under the designation RPMI 1640 (Manufactured by Gibco) was used as the cell culture medium, to which heparin (10 international units/ml) and antibiotics were added according to the procedure of Bonney et al. (Biochem. J. 176 (1978) 422-433). The cell suspension was adjusted to a cell concentration of 10^6 cells per ml and distributed uniformly on titer dishes containing 24 1-ml titer cells (wells). These were kept for two hours in a humidified incubator filled with air enriched with 7% CO2. Cells not adhering to the titer well walls were then removed by washing. The remaining macrophage cells adhering to the walls were incubated for about 12 hours in a suspension medium to which 0.1% of bovine serum albumin (BSA=Bovine Serum Albumin) was added. The suspension medium was then replaced by a Hanks salt solution (=Hanks Balanced Salt Solution=HBSS) with 10 mmoles of Hepes (=hydroxyethylpiperazinoethanesulfonic acid) to which a 0.1% strength solution of the test substances in aqueous, 1% strength dimethylformamide or only the solvent had been added. After 15 minutes the arachidonic acid metabolism was stimulated by adding […] of zymosan (=glycoprotein mixture isolated from cell walls of beer yeast, Saccharomyces cerevisiae, Manufactured by Sigma Chemical Co., Munich) per titre cell. After 2 hours samples of the respective supernatant liquid in each cell were examined for their 6-keto-PGF1α and LTC4 contents by an enzyme immunoassay (=EIA). This EIA is carried out following the method of Pradelles et al. (Analytical Chem. 57 (1985), 1170-1173). The determination of LTC4 and the determination of 6-keto-PGF1α were each carried out on suitable dilutions of the samples (1:50 to 1:250 for the LTC4 determination and 1:250 to 1:1,250 for the 6-keto-PGF1α determination) in comparison with a comparative scale. To determine the inhibiting effect of a 10^-5 molar concentration of the compounds, the amounts of reference eicosanoid were determined, and the inhibiting effect was calculated therefrom in % inhibition compared to the measurements of the zymosan controls.

[2] = tested on: cyclooxygenase (6-keto-PGF1α release); test: Cyclooxygenase inhibition: 6-keto-PGF1α release from zymosan-stimulated mouse peritoneal macrophage cells; type: cell-based; settings: Peritoneal macrophage cell; zymosan-stimulated mouse peritoneal macrophage cells, 10^-5 mole/l; read-out: In vitro % inhibition upon release of 6-keto-PGF1α
Excerpt: as §1, §2, §3, §4

[3] = tested on: mice; test: Determination of minimum toxic dose; type: in vivo; settings: mouse, per os; lowest dose producing death or severe toxic symptoms, maximum dose 300 mg/kg, 24 hours
Protocol: 2. Determination of Minimum Toxic Dose
Maximum doses of 300 mg/kg of the test substance were administered orally to male mice weighing 20-25 g. The animals were observed carefully for 3 hours for toxicity symptoms. In addition, all symptoms and deaths were recorded over a period of 24 hours after administration. Associated symptoms were also observed and recorded. If death or severe toxic symptoms were observed, additional mice were administered increasingly lower doses. The lowest dose which produced death or severe toxic symptoms is given in the following Table B as the minimum toxic dose.

[4] = tested on: Passive cutaneous anaphylaxis (PCA); test: Inhibition of passive cutaneous anaphylaxis (PCA); type: in vivo, Sprague-Dawley rats; settings: Rattus norvegicus, 1 h, read-out: % inhibition of Passive cutaneous anaphylaxis (PCA)
Protocol: (§5) 1. Determining Inhibition of Passive Cutaneous Anaphylaxis (PCA) and Histamine-Induced Anaphylactoid Cutaneous Reaction
The PCA reaction is carried out following the methods described by Goose et al. (J.N. Immunology 16 (1969), 749) and by Martin et al. (Arch. Pharmacol. 316 (1981), 186).
The IgE-rich ovalbumin antiserum used in the test was obtained from immunized Brown-Norway rats. The were immunized with an intraperitoneal injection of a mixture of 100 μg of ovalbumin with a Bordetella pertussis suspension (Vaxicoq™, Manufactured by Institute Merieux, containing 5×10^9 organisms and 1.25 mg Al(OH)3). After 20 days the animals were re-immunized with a further intraperitoneal injection of a solution of 10 μg ovalbumin in 0.5 ml physiological saline solution. After a further four days the blood was removed from the animals and centrifuged. The resulting antiserum was stored at -20° C. until use.
(§6) The inhibition of the passive cutaneous anaphylaxis and of the anaphylactoid cutaneous reaction induced by histamine was determined as follows:
Sprague-Dawley rats having a body weight of 150-180 g were injected intradermally in one flank with 50 μl of a 1:75 dilution of the IgE-rich ovalbumin antiserum in physiological saline solution to passively sensitize them to ovalbumin.
24 hours after sensitization a solution of 8.25 mg/kg of ovalbumin and 26.4 mg/kg of a blue dye (Evans's Blue) was administered to the rats intravenously according to Martin et al. to trigger passive cutaneous anaphylaxis.
(§7) On the day of the experiment the test substances were dissolved in distilled water which contained 1 vol. % dimethylformamide and 1 vol. % of Tween™ 20 (=polyoxyethylene (20) sorbitan monolaurate). One hour before administration of the ovalbumin challenge, each animal was orally administered 2×10^-5 mole/kg of test substance in 0.5 ml of solution. For comparison purposes a control group received only the solvent.
(§8) The edematous anaphylactic (PCA) and anaphylactoid (histamine-induced) reactions caused by the stimulation of the intravenous ovalbumin injection, which manifested themselves by edema formation, swelling and exudation of blue dye, were evaluated 30 minutes after their initiation by the intravenous ovalbumin injection. This was done by visually determining the extent to which the blue dye emerged at the sites of edema formation. The percentage inhibition of anaphylactic and anaphylactoid reactions induced by the test substances in comparison with the reactions of the control animals not treated with any test substance was determined using comparison scales.
(§9) The results obtained using compounds of formula I according to the foregoing test methods are shown in the following Table A. The example numbers given for the compounds of formula I relate to the subsequent preparative examples.

[5] = tested on: Histamine-induced anaphylactoid reaction; test: Inhibition of histamine-induced anaphylactoid cutaneous reaction; type: in vivo, Sprague-Dawley rats; settings: Rattus norvegicus, 1 h, read-out: % inhibition of Histamine-induced anaphylactoid reaction
Protocol: as §5, §6
To determine the histamine-induced anaphylactoid skin reaction, the animals are injected intradermally in the flank opposite to the antiserum administration with 50 μl of a physiological saline solution containing 0.8 mg/ml histamine directly before the intravenous injection of the solution containing the ovalbumin and the blue dye.
as §7, §8, §9

[6] = target: T1, histamine-(H1)-receptor (Cavia porcellus, UniProt P31389); test: Anti-histamine-(H1) effect, inhibition of histamine-induced contraction of isolated guinea pig ileum in vitro; type: cell-based, Dunkin Hartley guinea pigs; settings: histamine 5 × 10^-6 mole/l, test substance 10^-6 mole/l
T1 construct: Segments of the ileum 1.5 cm long from Dunkin Hartley guinea pigs; from tissue; host or cells: isolated ileum segments of Dunkin Hartley guinea pigs
Protocol: 3. Investigation of Anti-Histamine-(H1) Effect Based on Histamine-(H1)-Receptor Antagonism In Vitro
To investigate the histamine-(H1)-receptor antagonism of the test substances, the inhibiting effect of the substances on histamine-induced contractions of the smooth muscle was determined in vitro on the isolated organ. Isolated strips of organ from the ileum are suitable for this purpose. In an organ bath of physiological saline solution the smooth muscle strips react to the addition of histamine by contracting. […] The extent of regression of the contraction is an indication of the anti-histamine-(H1) activity of the compounds. The investigation was carried out analogously to the method originally described by Magnus (Pfluegers Arch. 102, 123 (1904)). Procedure for determining the smooth muscle contraction inhibiting effect on isolated guinea pig ileum induced by a 5×10^-6 molar histamine concentration.
Segments of the ileum 1.5 cm long from Dunkin Hartley guinea pigs having a body weight of 300 500 g were used for the test. Each strip was placed in an organ bath of 10 ml of physiological saline solution according to Krebs-Henseleit and attached to a conventional apparatus for isotonic measurement of changes in length of the ileum strips (automated Celaster measuring apparatus), so that the tissue was under 1 g of tension. The bath was kept at a pH of 7.4 and gassed with a mixture of 5% CO2 and 95% 02. After an equilibration phase, an isotonic contraction of the tissue was induced by adding histamine in a final concentration of 5×10^-6 mole/liter and washing it out again after a contact time of 30 seconds. Only tissues samples from which three reproducible contractions were obtained at 10 minute intervals were used in the subsequent test. The test substances were then added in a final concentration of 10^-6 mole/liter, and after 30 seconds contact time histamine was again added up to a concentration of 5×10^-6 mole/liter. The resulting contractions were measured over 30 seconds. The tissue was then washed several times over a period of 10 minutes. Histamine was then added again to stimulate a contraction. The resulting contractions were again measured over 30 seconds. The difference between the amplitude of the contraction obtained by histamine addition alone and the amplitude of the contraction obtained in the presence of the test substance was determined and expressed in terms of % inhibition.
The inhibiting effects on the contractions induced by histamine 30 seconds after administration of the test substance and on the contractions induced by the addition of histamine 10 minutes later are listed in the table.

[7] = rats, 2 × 10^-5 mole/kg dose per os, one hour before ovalbumin challenge
[8] = rats, 2 × 10^-5 mole/kg dose per os, one hour before challenge

T1 sequence (P31389 whole entry): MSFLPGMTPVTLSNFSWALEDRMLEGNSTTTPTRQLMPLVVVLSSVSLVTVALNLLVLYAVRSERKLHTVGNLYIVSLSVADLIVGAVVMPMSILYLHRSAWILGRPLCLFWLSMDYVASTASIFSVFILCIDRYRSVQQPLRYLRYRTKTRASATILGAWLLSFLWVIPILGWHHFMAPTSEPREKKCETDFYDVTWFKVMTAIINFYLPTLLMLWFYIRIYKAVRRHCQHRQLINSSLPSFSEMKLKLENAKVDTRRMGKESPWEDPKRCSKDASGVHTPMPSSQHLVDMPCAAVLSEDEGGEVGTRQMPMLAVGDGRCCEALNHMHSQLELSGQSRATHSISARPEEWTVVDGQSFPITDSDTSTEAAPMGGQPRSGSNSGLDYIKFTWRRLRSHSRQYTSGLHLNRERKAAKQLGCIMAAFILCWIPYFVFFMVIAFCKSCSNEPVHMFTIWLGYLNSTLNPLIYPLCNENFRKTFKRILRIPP

Structure (SMILES)	inhibition at 10 µM [1] [%]	inhibition at 10 µM [2] [%]	Minimum toxic dose [3] [mg/kg]	inhibition in vivo at 20 µmol/kg [4, 7] [%]	inhibition in vivo at 20 µmol/kg [5, 8] [%]	further results
S=C1Nc2ccccc2OC1CCCN1CCC(Cc2ccccc2)CC1 (centres unmarked) [Example 3, 2-[3-(4-benzylpiperidin-1-yl)-propyl]-2H-1,4-benzoxazine-3(4H)-thione]	16	17	300	–	–	–
O=C1Nc2ccccc2OC1CCCCN1CC=C(c2ccccc2)CC1 (centres unmarked) [Example 12]	–	–	–	35	20	–
O=C1Nc2ccccc2SC1CCCCN1CC=C(c2ccccc2)CC1 (centres unmarked) [Example 10, 2-[4-(4-phenyl-1,2,3,6-tetrahydropyridin-1-yl)-butyl]-2H-1,4-benzothiazine-3(4H)one]	37	30	300	55	30	–
COc1ccc2c(c1)SC(CCCCN1CCC(C(=O)c3ccc(F)cc3)CC1)C(=O)N2 (centres unmarked) [Example 18, 7-methoxy-2-(4-[4-(4-fluorobenzoyl)-piperidin-1-yl]-butyl)-2H-1,4benzothiazine-3(4H)-one]	–	–	–	90	50	–
O=C1Nc2ccccc2SC1N1CCC(Cc2ccccc2)CC1 (centres unmarked) [Example 16]	97	70	> 300	–	–	–
O=C1Nc2ccc(Cl)cc2SC1CCCCN1CCC(Nc2nc3ccccc3n2Cc2ccc(F)cc2)CC1 (centres unmarked) [Example 20]	–	–	–	20	40	–
N#CC1(c2ccccc2)CCN(CCCCC2Sc3ccccc3NC2=O)CC1 (centres unmarked) [Example 15]	–	–	300	–	–	inhibition in vivo at 20 µmol/kg [4]: 30%; inhibition in vivo at 20 µmol/kg [5]: 10%
O=C(c1ccc(F)cc1)C1CCN(C2Sc3ccccc3NC2=O)CC1 (centres unmarked) [Example 4, 2-[4-(4-fluorobenzoyl)-piperidin-1-yl]-2H-1,4-benzothiazine-3(4H)-one]	0	71	300	–	–	–
O=C1Nc2ccccc2OC1CCCN1CCC(Cc2ccccc2)CC1 (centres unmarked) [Example 2, 2-[3-(4-benzylpiperidin-1-yl)-propyl]-2H-1,4-benzoxazine-3(4H)-one]	54	13	–	–	–	–
O=C1Nc2ccccc2SC1CCCCN1CCC(Nc2nc3ccccc3n2Cc2ccc(F)cc2)CC1 (centres unmarked) [Example 1, 2-{4-[4-(N-(1-(4-fluorophenylmethyl)-1H-benzimidazol-2-yl)-amino)-piperidin-1-yl]-butyl}-2H-1,4-benzothiazine-3(4H)-one]	87	52	–	85	85	–
O=C1Nc2ccccc2OC1CCCCN1CCC(c2ccccc2)CC1 (centres unmarked) [Example 9]	–	–	–	–	–	in vitro (H1)-receptor antagonism, % inhibition of histamine-induced ileum contractions after 30 seconds [6]: 35%; in vitro (H1)-receptor antagonism, % inhibition of histamine-induced ileum contractions after 10 minutes [6]: 12%
O=C1Nc2ccccc2SC1CCCCN1CCC(O)(c2ccccc2)CC1 (centres unmarked) [Example 11]	–	–	–	45	20	–
O=C1Nc2ccccc2OC1CCCCN1CCC(O)(c2ccccc2)CC1 (centres unmarked) [Example 13]	–	–	–	–	–	in vitro (H1)-receptor antagonism, % inhibition of histamine-induced ileum contractions after 30 seconds [6]: 49%; in vitro (H1)-receptor antagonism, % inhibition of histamine-induced ileum contractions after 10 minutes [6]: 8%
